Source: patent publication US20250032464A1, “SOLID DISPERSION, PREPARATION METHOD THEREFOR, AND SOLID FORMULATION CONTAINING SAME” (HAIHE BIOPHARMA CO., LTD., priority 2021, published 2025)
Read-outs that look alike come from different tables or passages of the source.

Tests used:
[1] = in vitro; details: human, Caco-2
[2] = system: P-gp; test: in vitro; details: human, Caco-2
[3] = for Equilibrium solubility, 24 h: 37° C.
[4] = system: Caco-2 cell model; details: for The ratio of apparent permeability: human

Compound	Papp A→B [1] [×10⁻⁶ cm/s]	Papp B→A [1] [×10⁻⁶ cm/s]	efflux ratio [2]	Equilibrium solubility, 24 h ([3]; Water) [µg/mL]	solubility ([3]; media with different pH values)	Equilibrium solubility, 24 h ([3]; pH 1.2 simulated gastric fluid) [µg/mL]	Equilibrium solubility, 24 h ([3]; pH 4.5 phosphate buffer solution) [µg/mL]	Equilibrium solubility, 24 h ([3]; pH 6.8 simulated intestinal fluid) [µg/mL]	in vivo bioavailability (after direct administration)	bioavailability (micronized compound A) [%]	permeability characteristic ([4]; Caco-2)	The ratio of apparent permeability ([4]; Caco-2, 2 μM)	The ratio of apparent permeability ([4]; Caco-2, 10 μM)	The ratio of apparent permeability ([4]; Caco-2, 50 μM)
CC(C)NCC(O)COc1cccc2ccccc12 (centres unmarked) [Propranolol, propranolol]	13.7 ± 0.67	17 ± 0.32	1.24	–	–	–	–	–	–	–	–	–	–	–
Cn1cc(-c2cnc3cnn(S(=O)(=O)c4cnc5ccc(-c6cnn(C)c6)cn45)c3c2)cn1 [Compound A, 1-{(6-[(1-methyl)-4-pyrazolyl]-imidazo[1,2-a]pyridine)-3-sulfonyl}-6-[(1-methyl)-4-pyrazolyl]-1-hydro-pyrazolo[4,3-b]pyridine]	–	–	–	0.1	less than 1 μg/mL	0.5	0.1	0.1	less than 1%	3.3	high permeability characteristic	1.21	2.27	0.64
C[C@H]1O[C@@H](O[C@H]2[C@@H](O)C[C@H](O[C@H]3[C@@H](O)C[C@H](O[C@H]4CC[C@@]5(C)[C@H](CC[C@@H]6[C@@H]5C[C@@H](O)[C@]5(C)[C@@H](C7=CC(=O)OC7)CC[C@]65O)C4)O[C@@H]3C)O[C@@H]2C)C[C@H](O)[C@@H]1O [Digoxin, digoxin]	0.08 ± 0.01	12.5 ± 0.9	165	–	–	–	–	–	–	–	–	–	–	–
